System: H22 hepatoma carcinoma cells
Experiment: In-vivo tumor inhibitory effect in H22 tumor-bearing Kunming mice
Method: The tumor-bearing Kunming mice are used to evaluate the in-vivo tumor inhibitory effect of the compound multiple-unit capsule of the present invention. Inoculating H22 hepatoma carcinoma cells (provided by Shanghai Institute of Materia Medica of Chinese Academy of Sciences) to enterocoelia of mice, taking out the H22 cells cultivated in the enterocoelia of mice after 6-8 days and preparing into homogeneous suspension with PBS; subcutaneously inoculating 0.2 mL of H22 cells (2×10^6/mL) to right axilla of each mouse. After inoculation, the mice are divided into 5 groups, 10 mice for each group: (1) Normal saline group (blank control), (2) 5-FU group (positive control), (3) 0.5% CMC-Na group, (4) Niu Huang Xing Xiao pill group and (5) Compound multiple-unit capsule group. The 5-FU group is subjected to administration through intraperitoneal injection, once every two days, with the dosage being 25 mg/kg. And the other four groups are subjected to intragastric administration. Preparation method of the Niu Huang Xing Xiao pill group and the compound multiple-unit capsule group is as follows: taking prescription amount of each component, adding the components into 0.5% CMC-Na water solution to prepare suspension. The concentration of drug for administration according to the original prescription for the groups (4) and (5) is 450 mg/kg (with the concentration of realgar being about 75 mg/kg). The tumor inhibiting rate is calculated with the following formula:
Tumor inhibiting rate=(C−T)/C×100%; C and T being average weight of the tumors on mice of the blank control and the treatment group.

O=c1[nH]cc(F)c(=O)[nH]1 [Example 5-FU, 5-FU]
Weight of mice (g) After (after treatment, n=10): 24.20 ± 1.75 g | Weight of mice (g) Before (before treatment, n=10): 20.20 ± 0.92 g | Weight of tumor (n=10, 5-FU 25 mg/kg i.p. once every two days, pill and capsule 450 mg/kg intragastric): 0.50 ± 0.13 g | Tumor inhibiting rate (%) (n=10, (C−T)/C×100% vs blank control, 5-FU 25 mg/kg i.p., pill and capsule 450 mg/kg intragastric): 67.95%
